Measured values reported in patent US12577232B2, “N-heterocycle substituted tryptamine derivatives and methods of using” (ENVERIC B[…] INC., priority 2024, dated 2026).
Values joined by “and” are separate entries in the source; they are usually repeats but may differ in a detail not shown here. Equal entries are not always repeated.

Key:
[1] = test system: C57BL/6 mice; experiment: Mouse Head Twitch Response (HTR) assay to assess hallucinogenic potential; format: in vivo; conditions: 3 mg/kg i.p.; for mean HTR: 0-15 min interval (preliminary screening); for HTR compared with the HTR response for 5-Br-DMT (one-way ANOVA, Dunnett): alpha 0.05
Description: All experiments were approved by the University of Calgary Animal Care and Use Committee in accordance with Canadian Council on Animal Care guidelines. C57BL/6-Elite mixed sex mice were obtained from Charles River (8 weeks old). Until the first experiment, mice were group-housed, then single-housed on a 12:12 h light/dark schedule (lights on at 07:00 hours) with ad libitum access to food and water. Before any behavioral screening, mice were handled and exposed to the testing chamber for at least 5 min each day for three successive days and habituated to the experimental room 1 h before testing. The testing chamber was cleaned with a 70% ethanol solution between experiments to eliminate odor from other mice. Drug compounds (100 mM in DMSO) were diluted in sterile excipient (10% EtOH/15% PEG400 in ddH2O) to 3 mg/kg (preliminary screening) or 0.5, 2, 4, 7, and 10 mg/kg (dose-curve analysis) and administered using intraperitoneal (i.p.) drug injections. […] HTR was analyzed during the 0-to-15-minute window following drug administration. […] Mean HTR between 10 and 5 signifies reduced hallucinogenic potential relative to positive controls.

[2] = target: T1, 5-HT2A receptor (Homo sapiens, UniProt P28223); experiment: 5-HT2A receptor radioligand competition assay (SPA, [3H]ketanserin); format: binding; conditions: 1 nM [3H]ketanserin; membranes containing 5-HT2A; read-out: 5-HT2A, Ki
T1 construct: purchased PerkinElmer ES-313-M400UA
Description: Competition assays were performed as for 5-HT1A assays with the following differences. […] Determination of non-specific binding was carried out in the presence of […] of spiperone (S7395-250MG, Sigma-Aldrich). Equilibrium binding constant for ketanserin (Kd) was determined from saturation binding curves using the ‘one-site saturation binding analysis’ method in GraphPad PRISM software (Version 9.2.0).

[3] = test system: human model (NT2) neurons; experiment: Neuroplastogenicity (neurite outgrowth) assay in NT2 neurons; format: cell-based; design: key: a positive (+) designation indicating strong evidence of enhanced neurite outgrowth in drug-treated NT2 cells compared to vehicle-treated cells; a negative (−) designation indicating weak or no evidence of enhanced neurite outgrowth in drug-treated NT2 cells compared to vehicle-treated cells; conditions: 1 or 10 μM, 48 h, visual inspection vs vehicle (0.1% DMSO)
Description: Classic psychedelics such as psilocybin and DMT show potential to treat anxiety and depression, and it has been theorized that such long-term improvements arise because these drugs rapidly and lastingly stimulate neuroplasticity (Calder and Hasler, 2023, Neuropsychopharmacol. 48:104-112). Thus, it was of interest to determine the potential of new compounds as neuroplastogens. Herein, we assess the capacity of various compounds to enhance neurite outgrowth in human model (NT2) neurons.
Human NT2/D1 precursor cells were purchased from the American Type Culture Collection (ATCC, Manassas, VA, USA). Neuronal differentiation was carried out as previously described (Roloff et al., 2015, PloS ONE 10:e0118536) with minor modifications. Firstly, NT2/D1 cells were seeded in T-25 suspension culture flasks (REF #690190, Greiner bio-one, Germany). Each flask contains a minimum of 5×10^6 cells in 10 ml of DMEM/F12 supplemented with 10% fetal bovine serum (FBS), 1% penicillin and streptomycin and 10 μM retinoic acid (RA) medium to start neuronal differentiation. The cells were cultured for 3 days in free floating medium. At the end of the incubation cells were trypsinized and collected by centrifugation, mechanically dispersed, and counted. Counted cells were seeded along Poly D-Lysine (PDL) coated cover slips (12 mm; diameter round, Fisher Scientific; GG-12-PDL) containing a minimum of 0.1×10^5 cells in culture medium without RA. The next day culture medium was replaced with RA medium containing 2% of FBS. These cells cultured for 5 days and two days later, RA medium was changed.
After cells had successfully attached and established along coverslips, the RA medium was replaced with new medium containing 2% FBS and one of the following: (1) test compound (1 or 10 μM), (2) RhoK (ROCK) inhibitor Y-27632 (1 μM) as a positive control (Dihydrochloride; Sigma-Aldrich) (Roloff et al., 2015, PloS ONE 10:e0118536); (3) DMT (1 or 10 μM) as a positive control (Calder and Hasler, 2023, Neuropsychopharmacol. 48:104-112), or (4) vehicle (0.1% DMSO) as a negative control. These cells were incubated for 48 hours under standard conditions (370C, 5% CO2). The cells cultured along coverslips were collected after 48 hours of treatment. The coverslips washed with calcium chloride and magnesium chloride-free phosphate buffered saline (PBS) pH 7.4 (Gibco, #70011-044) and fixed in paraformaldehyde (PFA) 4% in PBS (#J61899, thermoscientific) for 15 min at room temperature (RT) and washed three times with 0.01% of Triton-X100 in PBS (PBST) to remove remaining PFA and to permeabilize the cells. Non-specific binding sites were blocked with 5% of Bovine Serum Albumin (BSA) solution (#9048-46-8, Millipore) in PBST for 60 minutes at RT. Rabbit monoclonal antibody β-III-tubulin (1:5,000, ab52623, Abcam) was applied overnight (O/N) at 4° C. Next day cells are washed three times in PBST, neurons were incubated with secondary antibody Donkey anti-rabbit IgG(H+L) Alexa Fluor™ Plus488 (1:5000 #A32790, Invitrogen) for 1 hour at RT. These coverslips were mounted on Gluoromount-G™, with 4′6-diamidino-2′henylindoldihydrochloride (DAPI) (#E141818, Invitrogen). The immunofluorescence images were analyzed using an Olympus VS110 slide scanner microscope.
B-III-Tubulin immunofluorescence was quantified using ImageJ. Briefly, Corrected Total Cell Fluorescence (CTCF) was acquired for at least ˜8-10 representative cells, where CTCF=Integrated Density−[Area of selected cell*Mean Fluorescence of background]. The CTCF values, referred to herein as ‘signal intensities’, were used to calculate overall means±SD for each treatment. One-Way ANOVA was used to compare treatments. Further, the mean of each treatment was compared with the mean of the control treatment (RA-differentiated cells treated with vehicle, 0.1% DMSO) using Dunnett's multiple comparison procedure. […]

T1 sequence (P28223 whole entry): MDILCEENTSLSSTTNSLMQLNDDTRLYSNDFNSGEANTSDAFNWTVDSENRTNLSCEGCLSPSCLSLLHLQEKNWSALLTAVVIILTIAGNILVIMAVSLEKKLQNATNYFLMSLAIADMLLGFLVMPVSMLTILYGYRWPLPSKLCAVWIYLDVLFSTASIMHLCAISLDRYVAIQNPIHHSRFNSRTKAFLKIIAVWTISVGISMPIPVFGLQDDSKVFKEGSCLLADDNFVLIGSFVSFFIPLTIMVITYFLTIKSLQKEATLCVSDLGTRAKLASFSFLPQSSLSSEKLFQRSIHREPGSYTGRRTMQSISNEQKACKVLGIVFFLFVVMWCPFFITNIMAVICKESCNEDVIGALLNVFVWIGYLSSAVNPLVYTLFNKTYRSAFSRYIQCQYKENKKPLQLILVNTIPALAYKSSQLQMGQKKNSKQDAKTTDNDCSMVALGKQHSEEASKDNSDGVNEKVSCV

## CCN(CC)CCc1c[nH]c2cc(F)cc(N3CCOCC3)c12 [Compound (XXVII)]
[1]
  mean HTR: 8.0
  HTR compared with the HTR response for 5-Br-DMT (one-way ANOVA, Dunnett): not statistically significantly higher
[2]
  Ki: 5.4 µM and 5.38 µM
[3]
  Evidence of neurite outgrowth: Yes (+) or No (−): −

## CN(CCc1c[nH]c2cc(N3CCOCC3)c(F)cc12)Cc1ccccc1 [Compound (XX)]
[1]
  mean HTR: 7.25
  HTR compared with the HTR response for 5-Br-DMT (one-way ANOVA, Dunnett): not statistically significantly higher
[2]
  Ki: 25.6 µM
[3]
  Evidence of neurite outgrowth: Yes (+) or No (−): +

## CN(C)CCc1c[nH]c2ccc(N3CCC3)cc12 [Compound (VI)]
[1]
  mean HTR: 11.5
[2]
  Ki: 12 µM
[3]
  Evidence of neurite outgrowth: Yes (+) or No (−): +

## CN(C)CCc1c[nH]c2cc(F)cc(N3CCN(C)CC3)c12 [Compound (XIX)]
[1]
  mean HTR: 11.5

## CN(C)CCc1c[nH]c2cc(N3CCCC3)c(F)cc12 [Compound (XIV)]
[1]
  mean HTR: 9.0
  HTR compared with the HTR response for 5-Br-DMT (one-way ANOVA, Dunnett): not statistically significantly higher
[2]
  Ki: 3.1 µM and 3.06 µM
[3]
  Evidence of neurite outgrowth: Yes (+) or No (−): +

## CN(C)CCc1c[nH]c2cc(F)c(N3CCN(C)CC3)cc12 [Compound (XXV)]
[1]
  mean HTR: 8.5
  HTR compared with the HTR response for 5-Br-DMT (one-way ANOVA, Dunnett): not statistically significantly higher
[3]
  Evidence of neurite outgrowth: Yes (+) or No (−): −

## 5-bromo-dimethyltryptamine [Compound 5-Br-DMT, reference compound]
[3]
  Evidence of neurite outgrowth: Yes (+) or No (−): +

## N[C@@H](Cc1c[nH]c2ccccc12)C(=O)O [tryptophan, reference compound]
[2]
  Ki: > 1000 µM

## CC(=O)c1[nH]c2cc(F)c(N3CCOCC3)cc2c1CCN(C)C [Compound (IX)]
[1]
  mean HTR: 9.25
  HTR compared with the HTR response for 5-Br-DMT (one-way ANOVA, Dunnett): not statistically significantly higher
[2]
  Ki: 14.2 µM
[3]
  Evidence of neurite outgrowth: Yes (+) or No (−): −

## CN(C)CCc1c[nH]c2cc(N3CCCC3)ccc12 [Compound (X)]
[1]
  mean HTR: 7.25
  HTR compared with the HTR response for 5-Br-DMT (one-way ANOVA, Dunnett): not statistically significantly higher
[2]
  Ki: 7.8 µM
[3]
  Evidence of neurite outgrowth: Yes (+) or No (−): +

## CN(C)CCc1c[nH]c2cc(N3CCN(C)CC3)cc(F)c12 [Compound (XXI)]
[1]
  mean HTR: 9.25
  HTR compared with the HTR response for 5-Br-DMT (one-way ANOVA, Dunnett): not statistically significantly higher

## CN(C)CCc1c[nH]c2cc(N3CCOCC3)cc(F)c12 [Compound (XVI)]
[1]
  mean HTR: 6.75
  HTR compared with the HTR response for 5-Br-DMT (one-way ANOVA, Dunnett): not statistically significantly higher
[2]
  Ki: 6.2 µM and 6.19 µM

## CN(C)CCc1c[nH]c2ccc(N3CCOCC3)cc12 [Compound (V)]
[1]
  mean HTR: 7.8
  HTR compared with the HTR response for 5-Br-DMT (one-way ANOVA, Dunnett): not statistically significantly higher
[2]
  Ki: 15 µM
[3]
  Evidence of neurite outgrowth: Yes (+) or No (−): +

## COc1ccc2[nH]cc(CCN(C)C)c2c1 [Compound 5-MeO-DMT, 5-methoxy-dimethyltryptamine, reference compound]
[3]
  Evidence of neurite outgrowth: Yes (+) or No (−): +

## CN(C)CCc1c[nH]c2cc(F)c(N3CCOCC3)cc12 [Compound (VII)]
[1]
  mean HTR: 7.75
  HTR compared with the HTR response for 5-Br-DMT (one-way ANOVA, Dunnett): not statistically significantly higher
[2]
  Ki: 63.9 µM
[3]
  Evidence of neurite outgrowth: Yes (+) or No (−): +

## CN(C)CCc1c[nH]c2cc(F)c(N3CCN(c4ccccc4)CC3)cc12 [Compound (XXVI)]
[1]
  mean HTR: 8.25
  HTR compared with the HTR response for 5-Br-DMT (one-way ANOVA, Dunnett): not statistically significantly higher

## CN(C)CCc1c[nH]c2cc(F)cc(N3CCCC3)c12 [Compound (XIII)]
[1]
  mean HTR: 7.75
  HTR compared with the HTR response for 5-Br-DMT (one-way ANOVA, Dunnett): not statistically significantly higher
[2]
  Ki: 2.96 µM
[3]
  Evidence of neurite outgrowth: Yes (+) or No (−): +

## CN(C)CCc1c[nH]c2cc(Cl)cc(N3CCN(C)CC3)c12 [Compound (XXIII)]
[1]
  mean HTR: 7.25
  HTR compared with the HTR response for 5-Br-DMT (one-way ANOVA, Dunnett): not statistically significantly higher
[2]
  Ki: 12.5 µM
[3]
  Evidence of neurite outgrowth: Yes (+) or No (−): +

## COc1ccc2c3c([nH]c2c1)CCN(C)CC3 [TBG, tabernanthalog, reference compound]
[2]
  Ki: 0.8 µM
[3]
  Evidence of neurite outgrowth: Yes (+) or No (−): +

## CN(C)CCc1c[nH]c2cc(N3CCOCC3)ccc12 [Compound (VIII)]
[1]
  mean HTR: 8.0
  HTR compared with the HTR response for 5-Br-DMT (one-way ANOVA, Dunnett): not statistically significantly higher
[2]
  Ki: 10.9 µM
[3]
  Evidence of neurite outgrowth: Yes (+) or No (−): −

## CN(C)CCc1c[nH]c2cc(N3CCOCC3)c(F)cc12 [Compound (XI)]
[1]
  mean HTR: 10.5
[2]
  Ki: 0.71 µM
[3]
  Evidence of neurite outgrowth: Yes (+) or No (−): −

## C[C@@H](N)[C@H]1CC[C@H](C(=O)Nc2ccncc2)CC1 [RhoK, reference compound]
[3]
  Evidence of neurite outgrowth: Yes (+) or No (−): +

## CN(C)CCc1c[nH]c2cc(Cl)cc(N3CCOCC3)c12 [Compound (XXII)]
[1]
  mean HTR: 6.5
  HTR compared with the HTR response for 5-Br-DMT (one-way ANOVA, Dunnett): not statistically significantly higher

## CCN(CC)CCc1c[nH]c2cc(F)ccc12 [Compound 6-F-DET, 6-fluoro-diethyltryptamine, reference compound]
[2]
  Ki: 0.35 µM
[3]
  Evidence of neurite outgrowth: Yes (+) or No (−): +
